In PMC8536124 (International Journal of Molecular Sciences, 2021):

Legend:
HOP-92 = assay: NCI-60 screening (SRB); format: cell-based, human; conditions: five-dose
NCI-H226 = assay: NCI-60 screening (SRB); format: cell-based, human; conditions: five-dose
NCI-H460 = assay: NCI-60 screening (SRB); format: cell-based, human; conditions: five-dose
NCI-H522 = assay: NCI-60 screening (SRB); format: cell-based, human; conditions: five-dose
COLO 205 = assay: NCI-60 screening (SRB); format: cell-based, human; conditions: five-dose
HCC-2998 = assay: NCI-60 screening (SRB); format: cell-based, human; conditions: five-dose
KM12 = assay: NCI-60 screening (SRB); format: cell-based, human; conditions: five-dose
SF-268 = assay: NCI-60 screening (SRB); format: cell-based, human; conditions: five-dose
SF-539 = assay: NCI-60 screening (SRB); format: cell-based, human
CNS cancer = assay: cells; format: cell-based
Description: The experimental data allow the assessment of the cytostatic effect, indicated by growth inhibition values ranging between 0 and 100, as well as of the cytotoxic effect, indicated by negative values.
The mean GI50 (molar concentration of the compound that inhibits 50% net cell growth), TGI (molar concentration of the compound leading to the total inhibition), and LC50 (molar concentration of the compound leading to 50% net cell death (presented in negative logarithm)) values across each cell line are shown in Table 2.
The selectivity index (SI), calculated as the ratio between the full panel MG_MID60 (μM) of compounds 4, 6, and 9 by their respective subpanels MG_MID of the cell line (μM), was introduced as a quantification tool for the selectivity of each compound in terms of anticancer effect (Table 3).
Primary anticancer assays were performed according to the NCI protocol, as described elsewhere (see e.g., http://dtp.nci.nih.gov accessed on 1 November 2018). The compounds were added at a single concentration, and the cell cultures were incubated for 48 h. The end point determinations were made with a protein-binding dye, sulforhodamine B (SRB). […] The percentage of growth was evaluated spectrophotometrically versus controls not treated with test agents after 48 h exposure and using SRB protein assay to estimate cell viability or growth. Three antitumor activity dose-response parameters were calculated for each cell line. Furthermore, mean graph midpoints (MG_MID) were calculated for each of the parameters, giving an average activity parameter over all cell lines for the tested compound. For the MG_MID calculation, insensitive cell lines were included with the highest concentration tested.

MALME-3M = assay: NCI-60 screening (SRB); format: cell-based, human
SK-MEL-28 = assay: NCI-60 screening (SRB); format: cell-based, human
SK-MEL-5 = assay: NCI-60 screening (SRB); format: cell-based, human; conditions: SK-MEL-5
UACC-62 = assay: NCI-60 screening (SRB); format: cell-based, human; conditions: five-dose
OVCAR-3 = assay: NCI-60 screening (SRB); format: cell-based, human; conditions: five-dose
OVCAR-5 = assay: NCI-60 screening (SRB); format: cell-based, human; conditions: five-dose
OVCAR-8 = assay: NCI-60 screening (SRB); format: cell-based, human; conditions: five-dose
NCI/ADR-RES = assay: NCI-60 screening (SRB); format: cell-based, human; conditions: five-dose
CAKI-1 = assay: NCI-60 screening (SRB); format: cell-based, human; conditions: CAKI-1, five-dose
RXF 393 = assay: NCI-60 screening (SRB); format: cell-based, human; conditions: five-dose
SN12C = assay: NCI-60 screening (SRB); format: cell-based, human; conditions: five-dose
TK-10 = assay: NCI-60 screening (SRB); format: cell-based, human; conditions: five-dose
DU-145 = assay: NCI-60 screening (SRB); format: cell-based, human; conditions: five-dose
MCF7 = assay: NCI-60 screening (SRB); format: cell-based, human; conditions: five-dose
MDA-MB-31/ATCC = assay: NCI-60 screening (SRB); format: cell-based, human; conditions: five-dose
BT-549 = assay: NCI-60 screening (SRB); format: cell-based, human; conditions: five-dose
MDA-MB-468 = assay: NCI-60 screening (SRB); format: cell-based, human; conditions: five-dose
[1] = Homo sapiens, read-out: LC50 (the source's name)
[2] = Homo sapiens, five-dose, read-out: LC50 (the source's name)

Question: For `CCN1CCN(C(=O)[C@]23CC[C@@H](C)[C@H](C)[C@H]2C2=CC[C@@H]4[C@@]5(C)CCC(=O)C(C)(C)[C@@H]5CC[C@@]4(C)[C@]2(C)CC3)CC1` [Compound 4, N-(3-oxo-ursan-12-en-28-oyl)-ethylpiperazine], which GI50 (HOP-92; Homo sapiens) is on record?
Answer: 713 nM

Question: And the CC50 (HOP-92; [1])?
Answer: 8220 nM

Question: What about the TGI (HOP-92) of the same compound?
Answer: 2060 nM

Question: And the GI50 (NCI-H226; Homo sapiens)?
Answer: 1780 nM

Question: What about the CC50 (NCI-H226; [1]) of the same compound?
Answer: 28700 nM

Question: What about the TGI (NCI-H226) of the same compound?
Answer: 7010 nM

Question: What about the GI50 (NCI-H460; Homo sapiens) of the same compound?
Answer: 913 nM

Question: What about the CC50 (NCI-H460; [1]) of the same compound?
Answer: 3270 nM

Question: And the TGI (NCI-H460)?
Answer: 1750 nM

Question: What about the GI50 (NCI-H522; Homo sapiens) of the same compound?
Answer: 831 nM

Question: And the CC50 (NCI-H522; [1])?
Answer: 3690 nM

Question: What about the TGI (NCI-H522) of the same compound?
Answer: 1750 nM

Question: And the GI50 (COLO 205; Homo sapiens)?
Answer: 1020 nM

Question: What about the CC50 (COLO 205; [1]) of the same compound?
Answer: 14500 nM

Question: What about the TGI (COLO 205) of the same compound?
Answer: 2370 nM

Question: What about the GI50 (HCC-2998; Homo sapiens) of the same compound?
Answer: 922 nM

Question: What about the CC50 (HCC-2998; [1]) of the same compound?
Answer: 3600 nM

Question: What about the TGI (HCC-2998) of the same compound?
Answer: 1820 nM

Question: What about the GI50 (KM12; Homo sapiens) of the same compound?
Answer: 1030 nM

Question: And the CC50 (KM12; [1])?
Answer: 4790 nM

Question: And the TGI (KM12)?
Answer: 2220 nM

Question: And the GI50 (SF-268; Homo sapiens)?
Answer: 1770 nM

Question: What about the CC50 (SF-268; [1]) of the same compound?
Answer: 24600 nM

Question: What about the TGI (SF-268) of the same compound?
Answer: 6490 nM

Question: What about the GI50 (SF-539; Homo sapiens, SF-539, five-dose) of the same compound?
Answer: 843 nM

Question: What about the CC50 (SF-539; Homo sapiens, SF-539, five-dose, read-out: LC50 (the source's name)) of the same compound?
Answer: 2800 nM

Question: And the TGI (SF-539; SF-539, five-dose)?
Answer: 1540 nM

Question: What about the Growth % (SF-539; SF-539 CNS cancer, 1 dose 10 µM) of the same compound?
Answer: −97.21%

Question: And the “TGI MG_MID” value (CNS cancer; CNS cancer subpanel, five-dose)?
Answer: 2840 nM

Question: And the “SI (TGI)” value (CNS cancer; CNS cancer, MG_MID60/subpanel MG_MID)?
Answer: 0.96

Question: What about the GI50 (CNS cancer; Homo sapiens, CNS cancer subpanel, five-dose, read-out: GI50 MG_MID) of the same compound?
Answer: 1030 nM

Question: And the CC50 (CNS cancer; Homo sapiens, CNS cancer subpanel, five-dose, read-out: LC50 MG_MID)?
Answer: 8690 nM

Question: What about the GI50 (MALME-3M; Homo sapiens, MALME-3M, five-dose) of the same compound?
Answer: 807 nM

Question: And the CC50 (MALME-3M; Homo sapiens, MALME-3M, five-dose, read-out: LC50 (the source's name))?
Answer: 8840 nM

Question: What about the Growth % (MALME-3M; MALME-3M (Melanoma), 1 dose 10 µM) of the same compound?
Answer: −85.67%

Question: And the TGI (MALME-3M; MALME-3M, five-dose)?
Answer: 1510 nM

Question: And the Growth % (SK-MEL-28; 1 dose 10 µM)?
Answer: −64.66%

Question: What about the GI50 (SK-MEL-28; Homo sapiens, five-dose) of the same compound?
Answer: 889 nM

Question: What about the CC50 (SK-MEL-28; [2]) of the same compound?
Answer: 3270 nM

Question: What about the TGI (SK-MEL-28; five-dose) of the same compound?
Answer: 1700 nM

Question: What about the GI50 (SK-MEL-5; Homo sapiens, five-dose) of the same compound?
Answer: 888 nM

Question: What about the CC50 (SK-MEL-5; [2]) of the same compound?
Answer: 2890 nM

Question: And the Growth % (SK-MEL-5; 1 dose 10 µM)?
Answer: −84.06%

Question: And the TGI (SK-MEL-5; five-dose)?
Answer: 1600 nM

Question: And the GI50 (UACC-62; Homo sapiens)?
Answer: 835 nM

Question: What about the CC50 (UACC-62; [1]) of the same compound?
Answer: 3090 nM

Question: And the TGI (UACC-62)?
Answer: 1610 nM

Question: What about the GI50 (OVCAR-3; Homo sapiens) of the same compound?
Answer: 1100 nM

Question: What about the CC50 (OVCAR-3; [1]) of the same compound?
Answer: 6520 nM

Question: What about the TGI (OVCAR-3) of the same compound?
Answer: 2440 nM

Question: What about the GI50 (OVCAR-5; Homo sapiens) of the same compound?
Answer: 907 nM

Question: What about the CC50 (OVCAR-5; [1]) of the same compound?
Answer: 3870 nM

Question: And the TGI (OVCAR-5)?
Answer: 1870 nM

Question: And the GI50 (OVCAR-8; Homo sapiens)?
Answer: 1100 nM

Question: What about the CC50 (OVCAR-8; [1]) of the same compound?
Answer: 30100 nM

Question: And the TGI (OVCAR-8)?
Answer: 2890 nM

Question: And the GI50 (NCI/ADR-RES; Homo sapiens)?
Answer: 1080 nM

Question: What about the CC50 (NCI/ADR-RES; [1]) of the same compound?
Answer: 18300 nM

Question: What about the TGI (NCI/ADR-RES) of the same compound?
Answer: 3240 nM

Question: And the TGI (CAKI-1)?
Answer: 2960 nM

Question: And the GI50 (CAKI-1; Homo sapiens)?
Answer: 946 nM

Question: And the CC50 (CAKI-1; [1])?
Answer: 11200 nM

Question: What about the GI50 (RXF 393; Homo sapiens) of the same compound?
Answer: 822 nM

Question: And the CC50 (RXF 393; [1])?
Answer: 3690 nM

Question: What about the TGI (RXF 393) of the same compound?
Answer: 1740 nM

Question: What about the GI50 (SN12C; Homo sapiens) of the same compound?
Answer: 776 nM

Question: What about the CC50 (SN12C; [1]) of the same compound?
Answer: 2810 nM

Question: What about the TGI (SN12C) of the same compound?
Answer: 1480 nM

Question: And the GI50 (TK-10; Homo sapiens)?
Answer: 1270 nM

Question: And the CC50 (TK-10; [1])?
Answer: 20300 nM

Question: And the TGI (TK-10)?
Answer: 4140 nM

Question: What about the GI50 (DU-145; Homo sapiens) of the same compound?
Answer: 1670 nM

Question: What about the CC50 (DU-145; [1]) of the same compound?
Answer: 18600 nM

Question: What about the TGI (DU-145) of the same compound?
Answer: 5620 nM

Question: What about the GI50 (MCF7; Homo sapiens) of the same compound?
Answer: 892 nM

Question: What about the CC50 (MCF7; [1]) of the same compound?
Answer: 4630 nM

Question: And the TGI (MCF7)?
Answer: 2030 nM

Question: And the GI50 (MDA-MB-31/ATCC; Homo sapiens)?
Answer: 779 nM

Question: What about the CC50 (MDA-MB-31/ATCC; [1]) of the same compound?
Answer: 2880 nM

Question: What about the TGI (MDA-MB-31/ATCC) of the same compound?
Answer: 1500 nM

Question: What about the GI50 (BT-549; Homo sapiens) of the same compound?
Answer: 833 nM

Question: And the CC50 (BT-549; [1])?
Answer: 3000 nM

Question: And the TGI (BT-549)?
Answer: 1580 nM

Question: What about the GI50 (MDA-MB-468; Homo sapiens) of the same compound?
Answer: 931 nM

Question: What about the CC50 (MDA-MB-468; [1]) of the same compound?
Answer: 9270 nM

Question: And the TGI (MDA-MB-468)?
Answer: 2320 nM
